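Following 48 hours of exposure in 96-well plates, responses at five concentrations were used to interpolate endpoints linearly. Here, GI50 denotes the concentration required for 50% inhibition of growth.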 Active and inactive are the calls of the source. No stated cut-off is given here; in the data, active = GI50 up to about 1.1 µM and inactive = higher.
Legend:
Assay in all cases: NCI tumour cell line growth inhibition, 48 h
[1] = test system: HOP-92
[2] = test system: KM12
[3] = test system: MOLT-4
[4] = test system: COLO 205
[5] = test system: RPMI-8226
[6] = test system: UACC-62
[7] = test system: UACC-257
[8] = test system: EKVX
[9] = test system: SF-268
[10] = test system: OVCAR-5
[11] = test system: IGROV-1
[12] = test system: SW-620
[13] = test system: OVCAR-4
[14] = test system: SF-295
[15] = test system: SK-MEL-5
[16] = test system: HCT-116
[17] = test system: SNB-19
[18] = test system: OVCAR-8
[19] = test system: ACHN
[20] = test system: CAKI-1

Row | Compound | GI50 [1] | GI50 [2] | GI50 [3] | GI50 [4] | GI50 [5] | GI50 [6] | GI50 [7] | GI50 [8] | GI50 [9] | GI50 [10] | GI50 [11] | GI50 [12] | GI50 [13] | GI50 [14] | GI50 [15] | GI50 [16] | GI50 [17] | GI50 [18] | GI50 [19] | GI50 [20]
1 | CC(=O)N(C)SCC(NC(=O)C(Cc1ccccc1)NC(=O)OCc1ccccc1)C(=O)NC(Cc1ccccc1)C(=O)NC(Cc1cn(C=O)c2ccccc12)C(=O)NC(CCCCNC(=O)OCc1ccccc1)C(=O)NC(C(=O)NC(CSN(C)C(C)=O)C(=O)NO)C(C)OCc1ccccc1 (stereo not given) | > 100 µM (inactive) | > 100 µM (inactive) | > 100 µM (inactive) | > 100 µM (inactive) | > 100 µM (inactive) | > 100 µM (inactive) | > 100 µM (inactive) | > 100 µM (inactive) | > 100 µM (inactive) | > 100 µM (inactive) | > 100 µM (inactive) | > 100 µM (inactive) | > 100 µM (inactive) | > 100 µM (inactive) | > 100 µM (inactive) | > 100 µM (inactive) | > 100 µM (inactive) | > 100 µM (inactive) | > 100 µM (inactive) | 
2 | COc1cccc(CCn2c(N)c(C#N)c3ccc([N+](=O)[O-])cc3c2=O)c1 | > 31.6 µM (inactive) | > 31.6 µM (inactive) | > 31.6 µM (inactive) | > 100 µM (inactive) |  | > 31.6 µM (inactive) | > 31.6 µM (inactive) | > 31.6 µM (inactive) | > 46.5 µM (inactive) | > 31.6 µM (inactive) | > 31.6 µM (inactive) | > 100 µM (inactive) | > 84.7 µM (inactive) | > 31.6 µM (inactive) | > 100 µM (inactive) | > 46.5 µM (inactive) | 98.2 µM (inactive) | > 46.5 µM (inactive) | > 46.5 µM (inactive) | > 46.5 µM (inactive)
3 | CC1C2CC(C(C3C(=O)C4CC3C(C)(C)C4C)C2=O)C1(C)C (stereo not given) | > 100 µM (inactive) | > 100 µM (inactive) | > 100 µM (inactive) | > 100 µM (inactive) |  | > 100 µM (inactive) | > 100 µM (inactive) | > 100 µM (inactive) | > 100 µM (inactive) | > 100 µM (inactive) | > 100 µM (inactive) | > 100 µM (inactive) | > 100 µM (inactive) | > 100 µM (inactive) | > 100 µM (inactive) | > 100 µM (inactive) | > 100 µM (inactive) | > 100 µM (inactive) | > 100 µM (inactive) | > 100 µM (inactive)
4 | Cc1cc(O)nc(NNC(C#N)c2ccc(O)cc2)n1 (stereo not given) | > 100 µM (inactive) | > 100 µM (inactive) | > 100 µM (inactive) | > 100 µM (inactive) | > 100 µM (inactive) | > 100 µM (inactive) | > 100 µM (inactive) |  | > 100 µM (inactive) | > 100 µM (inactive) | > 100 µM (inactive) | > 100 µM (inactive) | > 100 µM (inactive) | > 100 µM (inactive) | > 100 µM (inactive) | > 100 µM (inactive) |  | > 100 µM (inactive) | > 100 µM (inactive) | > 100 µM (inactive)
5 | COC(=O)C#CC(N)=O | 20.6 µM (inactive) | > 100 µM (inactive) | 22.3 µM (inactive) | > 100 µM (inactive) |  | > 64.7 µM (inactive) | 27.7 µM (inactive) | > 100 µM (inactive) | > 100 µM (inactive) | > 100 µM (inactive) | > 100 µM (inactive) | 23.8 µM (inactive) | > 100 µM (inactive) | > 100 µM (inactive) | > 100 µM (inactive) | 98.2 µM (inactive) | > 100 µM (inactive) | 30.7 µM (inactive) | > 100 µM (inactive) | 28.1 µM (inactive)
6 | O=C1NC(=O)C(CC2CCCCCCCCCCC2=O)C(=O)N1 (stereo not given) | > 100 µM (inactive) | > 100 µM (inactive) | 39.6 µM (inactive) | > 100 µM (inactive) |  | > 100 µM (inactive) | > 100 µM (inactive) | > 100 µM (inactive) | > 100 µM (inactive) | > 100 µM (inactive) | > 100 µM (inactive) | > 100 µM (inactive) | > 100 µM (inactive) | > 100 µM (inactive) | > 100 µM (inactive) | > 100 µM (inactive) | > 100 µM (inactive) | > 100 µM (inactive) | > 100 µM (inactive) | > 100 µM (inactive)
7 | CCCCCCOP(=O)(OCCCCCC)C(NC(=O)OCC)(C(F)(F)F)C(F)(F)F | 28.4 µM (inactive) | 39.1 µM (inactive) | > 100 µM (inactive) | 16.6 µM (inactive) | > 100 µM (inactive) | 41.6 µM (inactive) |  | 64.6 µM (inactive) | 40.6 µM (inactive) | 43.8 µM (inactive) | 34 µM (inactive) | 33.3 µM (inactive) |  | 30.3 µM (inactive) | 20 µM (inactive) | 27.4 µM (inactive) | 39.4 µM (inactive) | 36.1 µM (inactive) | 28.8 µM (inactive) | 51.6 µM (inactive)
8 | COc1ccc(C(c2ccc(C(C)C)cc(=O)c2O)c2c(O)cc3oc(-c4ccccc4)cc(=O)c3c2O)cc1 (stereo not given) | < 0.01 µM (active) |  | 5.73 µM (inactive) | 9.79 µM (inactive) | 6.21 µM (inactive) | 6.65 µM (inactive) | 27.4 µM (inactive) | 12.6 µM (inactive) |  |  | 3.91 µM (inactive) | 14.5 µM (inactive) | 7.53 µM (inactive) | 4.93 µM (inactive) | 11.5 µM (inactive) | 2.81 µM (inactive) | 4.14 µM (inactive) | 6.9 µM (inactive) | 4.21 µM (inactive) | 9.04 µM (inactive)
9 | COc1ccc(NC2Oc3cc4c(cc3C(c3cc(OC)c(O)c(OC)c3)C2C)OCO4)cc1 (stereo not given) | 23.8 µM (inactive) | 4.78 µM (inactive) |  | 8.87 µM (inactive) | 3.15 µM (inactive) | 2.74 µM (inactive) | 15.1 µM (inactive) |  | 14.7 µM (inactive) | 7.66 µM (inactive) | 5.55 µM (inactive) | 3.5 µM (inactive) | 48.2 µM (inactive) | 4.78 µM (inactive) | 1.96 µM (inactive) | 4.43 µM (inactive) | 21.4 µM (inactive) | 4.45 µM (inactive) | 4.01 µM (inactive) | 10.4 µM (inactive)
10 | N#Cc1ccccc1C(Cl)(Cl)c1cnccn1 | 25.4 µM (inactive) | 37.8 µM (inactive) | 22.6 µM (inactive) | 46.9 µM (inactive) |  | 30.5 µM (inactive) | 88.1 µM (inactive) | 40 µM (inactive) | 52.5 µM (inactive) | > 100 µM (inactive) | 44.1 µM (inactive) | 99.3 µM (inactive) | > 100 µM (inactive) | 47 µM (inactive) | 20.4 µM (inactive) |  | 56.5 µM (inactive) | 26.3 µM (inactive) | 59.6 µM (inactive) | > 100 µM (inactive)
11 | CSCCC(NC(=O)OCc1ccccc1)NC(=O)OCc1ccccc1 | > 100 µM (inactive) |  | > 100 µM (inactive) | > 100 µM (inactive) | > 100 µM (inactive) |  | > 100 µM (inactive) |  |  | > 100 µM (inactive) | > 100 µM (inactive) | > 100 µM (inactive) | > 100 µM (inactive) | > 100 µM (inactive) | > 100 µM (inactive) | > 100 µM (inactive) | > 100 µM (inactive) | > 100 µM (inactive) | > 100 µM (inactive) | > 100 µM (inactive)
12 | CC12CCC3C(CCC4=CC(O)CCC43C=O)C1(O)CCC2c1ccc(=O)oc1 (stereo not given) | 0.0164 µM (active) | 0.0129 µM (active) |  | 0.0169 µM (active) | 0.05 µM (active) | 0.05 µM (active) | 0.0139 µM (active) | 0.0124 µM (active) |  | 0.0693 µM (active) | 0.00984 µM (active) | 0.05 µM (active) | 0.00723 µM (active) | 0.0104 µM (active) | 0.00622 µM (active) | 0.05 µM (active) | 0.00622 µM (active) | 0.00622 µM (active) |  | 
13 | O=S(=O)(N/C(=N\O)Nc1ccc(Cl)cc1)c1cc2ccccc2s1 | 18.3 µM (inactive) | 22.3 µM (inactive) | 16.2 µM (inactive) | 15.2 µM (inactive) |  | 15.3 µM (inactive) | 22 µM (inactive) | 12.9 µM (inactive) | 15.2 µM (inactive) | 15.2 µM (inactive) | 13.5 µM (inactive) | 23.7 µM (inactive) | 14.4 µM (inactive) | 20.1 µM (inactive) | 16.3 µM (inactive) | 16.6 µM (inactive) | 17 µM (inactive) | 16.8 µM (inactive) | 16.4 µM (inactive) | 15.8 µM (inactive)
14 | NC(=O)c1oc([N+](=O)[O-])c(-c2ccccc2)c1-c1ccccc1 | 16.1 µM (inactive) | 13.6 µM (inactive) | 17.1 µM (inactive) | 16.8 µM (inactive) |  | 8.65 µM (inactive) | 18 µM (inactive) | 17.6 µM (inactive) | 37.6 µM (inactive) | 26.1 µM (inactive) | 12.9 µM (inactive) | 27 µM (inactive) | 12.2 µM (inactive) | 15.8 µM (inactive) | 0.597 µM (active) | 15.4 µM (inactive) | 38.5 µM (inactive) | 24.8 µM (inactive) | 26.2 µM (inactive) | 18.4 µM (inactive)
15 | C[C@]12CC[C@H](OC(=O)Cc3ccc(N(CCCl)CCCl)cc3)CC1=CC[C@@H]1[C@@H]2CC[C@]2(C)C(=O)CC[C@@H]12 | > 100 µM (inactive) | > 100 µM (inactive) | > 100 µM (inactive) | > 100 µM (inactive) | > 100 µM (inactive) |  | > 100 µM (inactive) | > 100 µM (inactive) | > 100 µM (inactive) | > 100 µM (inactive) | > 100 µM (inactive) | > 100 µM (inactive) |  |  | > 100 µM (inactive) |  | > 100 µM (inactive) | > 100 µM (inactive) | > 100 µM (inactive) | > 100 µM (inactive)

— ChEMBL document CHEMBL1201862, “PubChem BioAssay data set” (2004)
